The text below walks through data of patent US20230058557A1, “TRANSPLANTED CELL PROTECTION VIA INHIBITION OF POLYMORPHONUCLEAR CELLS” (The Regents of the University of California, priority 2020, published 2023).

In one data set the test system is human PMNs. Format: cell-based. As to the method: A comprehensive human immune assay was established using the XCelligence in vitro impedance system that obtains real-time kinetics of target cell killing. (ACEA BioSciences, San Diego, Calif., Catalog No. 00380601040). Wild-type (wt) and engineered iPSCs were differentiated into endothelial cells for this assay. […] Some experimental groups were treated with IL-2 (1 ng/ml), which is a central cytokine involved in allograft rejection. The assays were run for a duration of 90 h which is the maximum time period iECs can be cultured in this system before the monolayer breaks down spontaneously.
The immune system not only distinguishes between “self” and “non-self”, but also reacts to “danger” signals: released by autologous cells in distress. Matzinger, Ann. Rev. Immunol. 12:991-1045 (1994), incorporated by reference herein in its entirety. Intracellular components, released by damaged cells, can act as adjuvants and boost immune activation to alarm the immune system of cell death. Because apoptosis activates programmed cell death pathways aimed at digesting intracellular proteins, apoptotic cells are considered weak releasers of danger signals. […] For our in vitro assays, 20,000 target cells were sonicated to disrupt their cell membrane and release DAMPs and the cell debris was added to prior grown and confluent target iEC layer in Xcelligence assays.
Thus, for DAMP-activated XCelligence assays, iECs were plated and in addition to the immune effector cells, 20,000 sonicated target cells were added at the same time. […]
Ligands for CD200R and PIRLα are CD200 and CD99, respectively. Recombinant human CD200 Fc chimera proteins (R&D Systems, Minneapolis, Minn., Catalog no. 2724-CD-050) and CD99 Fc chimera proteins (R&D Systems, Minneapolis, Minn., Catalog no. 3968-CD-050) engage these receptors. These Fc chimera proteins were added to the assays at 10 μg/ml. There is no known ligand for SIRL-1 but there is an activating monoclonal SIRL-1 antibody to trigger downstream inhibitory signaling (Steevels T A., Eur J. Immunol. 43(5):1297-308 (2013)). The human PMNs were activated via DAMPs or IL-2 and the killing of human wt and HIP iECs was assessed (FIG. 8).
BAY 85-8501 was used at 1 nM or 1 μM concentrations. The effector PMNs were stimulated with sonicated cells or IL-2.
Activating receptors include the family of toll-like receptors (TLRs) that are activated by a wide range of ligands including DAMPs. PMN activation pathways were inhibited by TAK-242 (MedChem Express, Monmouth Junction, N.J., Catalog No. HY-11109, 10 μM for in vitro Xcelligence assays), a small-molecule inhibitor of TLR-4-mediated signaling. Wild-type and HIP cells were used on the XCelligence platform using PMNs as effector cells (FIG. 13). Necrotic cells or IL-2 were used as PMN stimulators.

For data set [1] the following is noted: in mice; cited from earlier work.
[2] abbreviates: 10 μM, DAMP- or IL-2 activated PMNs.
Where [3] appears, read: PMNs activated via DAMPs (necrotic/sonicated cells), Fc chimera proteins 10 μg/ml.
The mark [4] stands for this setting: PMNs stimulated with IL-2, Fc chimera proteins 10 μg/ml.

Entries after “also recorded” stand apart in the source; their conditions may differ. Read-outs that look alike come from different tables or passages of the source.

As for `COc1cc(C(C)=O)ccc1O` [Apocynin], in the data set with human PMNs (setting [2]), the “PMN killing of wt and HIP iECs” value is given as “diminished”.
For the molecule `CC1=C(C#N)[C@@H](c2ccc(C#N)cc2S(C)(=O)=O)N(C)C(=O)N1c1cccc(C(F)(F)F)c1` [BAY 85-8501], the “PMN killing of wt or HIP target cells” value is given as “less effective” in the data set with human PMNs (1 nM, compared with 1 μM); “fully prevented” in the data set with human PMNs (1 μM, PMNs activated via DAMPs from sonicated cells); “further delayed the target cell killing” with human PMNs (1 μM, in the presence of IL-2).
For `CC[C@H](Nc1ncnc2[nH]cnc12)c1nc2cccc(F)c2c(=O)n1-c1ccccc1` [Idelalisib], in the data set with human PMNs (setting [2]), the “PMN killing of wt and HIP iECs” value is given as “mildly diminished PMN killing”.
As to `CCOC(=O)C1=CCCC[C@H]1S(=O)(=O)Nc1ccc(F)cc1Cl` [TAK-242], the “PMN killing of wt and HIP iECs, efficacy by stimulator” value in the data set on human PMNs (10 μM, DAMPs compared with IL-2) is on record as “stronger”. The “PMN killing of wt and HIP iECs” value in the data set with human PMNs (10 μM, IL-2) is given as “still markedly reduced”; in the data set with human PMNs (10 μM, necrotic cells (DAMPs) or IL-2 as PMN stimulators), “diminished PMN killing”.
Regarding `COc1cc2c(c(OC)c1OC)-c1ccc(OC)c(=O)cc1[C@@H](NC(C)=O)CC2` [colchicine], the “PMN killing of wt and HIP iECs” value in the data set with human PMNs (1 μM monotherapy, DAMP or IL-2 activated PMNs) was “mild inhibitor; also recorded: only marginal efficacy”.
As to “A1AT: Alpha-1 antitrypsin, Neutrophil Elastase inhibitor (Sigma-Aldrich A9024)”, in data set [1], the “Half-life of A1AT” value is on record as “approx. 4.5 days”. Further, in the data set with human PMNs (30 μM recombinant A1AT), the “PMN killing of wt and HIP iECs” value was “minorly effective; also recorded: some minor activity against PMN killing”.

B1: CD99 Fc chimera: Recombinant CD99 Fc chimera protein (R&D Systems 3968-CD-050), ligand for PIRLα (protein)
chain: DGGFDLSDALPDNENKKPTAIPKKPSAGDDFDLGDAVVDGENDDPRPPNPPKPMPNPNPNHPSSSGSFSDADLADGVSGGEGKGGSDGGGSHRKEGEEAD
modifications: left off: a dimerising Fc or GST
notes: Recombinant CD99 Fc chimera protein (R&D Systems 3968-CD-050), ligand for PIRLα
On to B1, for which the “PMN killing of wt and HIP iECs” value is on record as “prevented PMN killing” in the data set with human PMNs (setting [3]); “somewhat delayed” with human PMNs (setting [4]); “delayed but not prevented” in the data set with human PMNs (PMNs stimulated with IL-2, Fc chimera proteins 10 μg/ml, listed as CD99).

B2: CD200 Fc chimera: Recombinant human CD200 Fc chimera protein (R&D Systems 2724-CD-050), ligand for CD200R (protein)
chain: QVQVVTQDEREQLYTPASLKCSLQNAQEALIVTWQKKKAVSPENMVTFSENHGVVIQPAYKDKINITQLGLQNSTITFWNITLEDEGCYMCLFNTFGFGKISGTACLTVYVQPIVSLHYKFSEDHLNITCSATARPAPMVFWKVPRSGIENSTVTLSHPNGTTSVTSILHIKDPKNQVGKEVICQVLHLGTVTDFKQTVNKG
modifications: left off: a dimerising Fc or GST
notes: Recombinant human CD200 Fc chimera protein (R&D Systems 2724-CD-050), ligand for CD200R
On to B2, for which the “PMN killing of wt and HIP iECs” value in the data set on human PMNs (setting [3]) was “prevented PMN killing”; with human PMNs (setting [4]), “somewhat delayed”; in the data set on human PMNs (PMNs stimulated with IL-2, Fc chimera proteins 10 μg/ml, listed as recombinant CD200) it was “delayed but not prevented”.
